Experimental data reported in US11458139B2, “Use of BRAF inhibitors for treating cutaneous reactions caused by treatment with a MEK inhibitor” (MEMORIAL SLOAN KETTERING CANCER CENTER, priority 2017, dated 2022).

Tested on: MAPK (ERK)
Experiment: ERK phosphorylation (Phospho-ERK/total ERK) in normal human keratinocytes HEKa, Western blot
Type: cell-based
Conditions: 2 hours treatment; for ERK activation (increase in the relative amount of Phosphorylated ERK): 0.3 μM (FIGS. 1A and 1C); for effect on ERK activation: concentration not given (0.3 μM and 1 μM tested)
Procedure: Normal human keratinocytes HEKa (purchased from Gibco Rhenium) were seeded in 10 cm dishes (300,000 cells/dish) and incubated overnight at 37° C., 5% CO2. The medium was then replaced with a starvation medium for 2 hours and the cells were subsequently treated for 2 additional hours with the test compounds (i.e BRAF inhibitors). […]
Post incubation, the cells were lysed with RIPA buffer and the protein extracts were analyzed by Western blot to detect Phospho-ERK and total ERK using suitable antibodies. Untreated cells and 0.1% DMSO treated cells were used as negative control and Human Keratinocyte Growth Supplement (HKGS) (Gibco) was used as a positive control.
Western Blot: 7.5 μg of total extract was loaded on 10% or 12% acrylamide gel. Following transfer, the membranes were blocked with TBST/5% skimmed milk and then incubated with Mouse anti Phospho-ERK (1:1000 in TBST 5% BSA, ON at 4° C.) and goat anti Mouse HRP (1:10,000 in TBST 5% BSA, 1-hour RT). The membranes were exposed using SuperSignal West Pico Chemiluminescent Substrate.
HRP was subsequently inactivated by incubating the membranes for 1 hour with 0.5% sodium azide. Following washes and ECL exposure in order to ensure absence of signal, the membranes were re-blocked for 15 min with TBST/5% skimmed milk and then incubated with Rabbit anti total ERK2 (1:500 in TBST 5% BSA, ON at 4° C.), goat anti Rabbit HRP (1:5,000 in TBST 5% BSA, 1-hour RT) and finally exposed using the SuperSignal West Pico Chemiluminescent Substrate. The films were scanned and the signal was quantified using ImageJ software. The results were calculated as Phospho-ERK/total ERK.
In this experiment, the effect of the BRAF inhibitor compounds disclosed herein on MAPK (ERK) phosphorylation in human keratinocytes (HEKa) was investigated. Phosphorylation of ERK served as an indicator for ERK activation.
In order to determine the effect of various BRAF inhibitors on ERK activation in relevant keratinocytes cells, the level of ERK phosphorylation was measured in normal human keratinocytes in response to treatment with the BRAF inhibitors.

| Structure (SMILES) | ERK activation (increase in the relative amount of Phosphorylated ERK) | effect on ERK activation |
| --- | --- | --- |
| CNc1cc(-c2cccnc2Nc2c(C)ccc3c(Nc4ccc(I)cc4F)nccc23)ncn1 [LUT156] | significant ERK activation | – |
| CNc1ncc2cc(-c3c(C)ccc4c(Nc5ccc(Cl)c(C(F)(F)F)c5)nccc34)ccc2n1 [LUT197] | significant ERK activation | – |
| C#Cc1cccc(Nc2nccc3c(-c4ccc5nc(NC)ncc5c4)c(C)ccc23)c1 [LUT192] | – | moderate effect on ERK activation |
| CNc1ncc2cc(-c3c(C)ccc4c(Nc5ccc(F)c(Cl)c5)nccc34)ccc2n1 [LUT195] | – | moderate effect on ERK activation |
| CNc1ncc2ccc(-c3c(C)ccc4c(Nc5cc(O)cc(O)c5)nccc34)cc2n1 [LUT001] | – | moderate effect on ERK activation |
